{"source": "the supplement of paper PMC10307832", "assay_in_all_cases": "relative viability (nuclei count vs DMSO), 5 days (fraction); higher = more cells survive", "key": {"CX-5461 + Alpelisib": {"compound": "Cc1cnc(CNC(=O)c2c(=O)c3ccc(N4CCCN(C)CC4)nc3n3c2sc2ccccc23)cn1 [CX-5461] + Cc1nc(NC(=O)N2CCC[C@H]2C(N)=O)sc1-c1ccnc(C(C)(C)C(F)(F)F)c1 [Alpelisib] (partner 2 µM)", "procedure,_shortened": "(§1)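 Each reported value is a median over duplicate plates. It expresses relative viability: treated-well nuclei count divided by vehicle-well nuclei count. Lung cancer cell lines in 1536-well plates were dosed by pin tool a day after seeding, alone with one drug or with a fixed anchor-drug dose plus five library-drug doses (not always all listed) in √10 steps, and nuclei were counted after 5 days.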"}, "IMD-0354 + Palbociclib": {"compound": "O=C(Nc1cc(C(F)(F)F)cc(C(F)(F)F)c1)c1cc(Cl)ccc1O [IMD-0354] + CC(=O)c1c(C)c2cnc(Nc3ccc(N4CCNCC4)cn3)nc2n(C2CCCC2)c1=O [Palbociclib] (partner 0.5 µM)", "procedure,_shortened": "as §1"}, "IMD-0354 + Navitoclax": {"compound": "O=C(Nc1cc(C(F)(F)F)cc(C(F)(F)F)c1)c1cc(Cl)ccc1O [IMD-0354] + CC1(C)CCC(c2ccc(Cl)cc2)=C(CN2CCN(c3ccc(C(=O)NS(=O)(=O)c4ccc(N[C@H](CCN5CCOCC5)CSc5ccccc5)c(S(=O)(=O)C(F)(F)F)c4)cc3)CC2)C1 [Navitoclax] (partner 0.5 µM)", "procedure,_shortened": "as §1"}, "IMD-0354 + Linsitinib": {"compound": "O=C(Nc1cc(C(F)(F)F)cc(C(F)(F)F)c1)c1cc(Cl)ccc1O [IMD-0354] + C[C@]1(O)C[C@@H](c2nc(-c3ccc4ccc(-c5ccccc5)nc4c3)c3c(N)nccn32)C1 [Linsitinib] (partner 1 µM)", "procedure,_shortened": "as §1"}}}
{"cell line": "UMC-11", "values": [{"measurement": "relative viability", "setting": "CX-5461 + Alpelisib; first compound 0.01 µM", "result": 0.932}, {"measurement": "relative viability", "setting": "CX-5461 + Alpelisib; first compound 0.03162 µM", "result": 1.21}, {"measurement": "relative viability", "setting": "CX-5461 + Alpelisib; first compound 0.1 µM", "result": 1.07}, {"measurement": "relative viability", "setting": "CX-5461 + Alpelisib; first compound 0.3162 µM", "result": 0.956}, {"measurement": "relative viability", "setting": "CX-5461 + Alpelisib; first compound 1 µM", "result": 0.391}, {"measurement": "relative viability", "setting": "IMD-0354 + Palbociclib; first compound 0.04 µM", "result": 0.344}, {"measurement": "relative viability", "setting": "IMD-0354 + Palbociclib; first compound 0.1265 µM", "result": 0.303}, {"measurement": "relative viability", "setting": "IMD-0354 + Palbociclib; first compound 0.4 µM", "result": 0.323}, {"measurement": "relative viability", "setting": "IMD-0354 + Palbociclib; first compound 1.265 µM", "result": 0.215}, {"measurement": "relative viability", "setting": "IMD-0354 + Palbociclib; first compound 4 µM", "result": 0.18}, {"measurement": "relative viability", "setting": "IMD-0354 + Navitoclax; first compound 0.04 µM", "result": 0.338}, {"measurement": "relative viability", "setting": "IMD-0354 + Navitoclax; first compound 0.1265 µM", "result": 0.276}, {"measurement": "relative viability", "setting": "IMD-0354 + Navitoclax; first compound 0.4 µM", "result": 0.29}, {"measurement": "relative viability", "setting": "IMD-0354 + Navitoclax; first compound 1.265 µM", "result": 0.112}, {"measurement": "relative viability", "setting": "IMD-0354 + Navitoclax; first compound 4 µM", "result": 0.149}, {"measurement": "relative viability", "setting": "IMD-0354 + Linsitinib; first compound 0.04 µM", "result": 1.04}, {"measurement": "relative viability", "setting": "IMD-0354 + Linsitinib; first compound 0.1265 µM", "result": 1.04}, {"measurement": "relative viability", "setting": "IMD-0354 + Linsitinib; first compound 0.4 µM", "result": 0.559}, {"measurement": "relative viability", "setting": "IMD-0354 + Linsitinib; first compound 1.265 µM", "result": 0.254}, {"measurement": "relative viability", "setting": "IMD-0354 + Linsitinib; first compound 4 µM", "result": 0.285}]}
